Reference: patent US9426996B2, “Use of benzoxaboroles as volatile antimicrobial agents on meats, plants, or plant parts” (AgroFresh Inc., priority 2013, dated 2016)

Key:
Penicillium expansum = assay: in vivo sublimation bioassay on fruit, 10 mg/L (Example 22); conditions: 10 mg/L sublimed, three day treatment plus three days at 21° C.
Experimental: (§1) To assess the in vivo activity of volatile antimicrobial Compound A (FIG. 1) in fruit, a volatile bioassay is developed using apple, pear, orange, strawberry, grape and blueberry. Two apples, 2 oranges, 2 pears, 8 strawberries, 16 grapes or 30 blueberries (per replicate, in duplicate) are placed in a clamshell with the stem end facing up for all fruits except for strawberry (stem end facing downwards). A fresh wound is inoculated with 20 μL 1×10^6 per mL Penicillium expansum spore suspension (apple and pear), 20 μL 1×10^6 per mL Penicillium digitatum spore suspension (orange), and 20 μL (strawberry and grape) or 10 μL (blueberry) of 1×10^6 per mL Botrytis cinerea spore suspension. The clamshells are placed inside a 117 L Rubbermaid storage box (Cat #2244) with lids closed. Compound A, dissolved in acetone, is pipetted onto a cotton strip, where the acetone is allowed to evaporate for five minutes, and then introduced into the container by a sublimation device (copper tube heated to 200° C. with fan flow at 0.5 L/min) to achieve a final headspace concentration of 10 mg/L. The containers are then held for three days at 21° C. After treatment, fruits are held for an additional three days at 21° C., then evaluated for disease incidence (mm diameter of browning or water-soaked lesions) and pathogen sporulation (mm diameter) for apple, pear and orange, as well as Botrytis cinerea disease incidence (%) and severity (0 to 4) for strawberry, grape and blueberry, with results summarized in Table 21.

Botrytis cinerea [1] = assay: as above; conditions: 10 mg/L sublimed, three day treatment plus three days at 21° C.
Experimental: as §1

Penicillium digitatum [2] = assay: as above; conditions: Orange; 10 mg/L sublimed; three day treatment plus three days at 21° C.
Experimental: as §1

Botrytis cinerea [3] = assay: in vivo dose by time volatile bioassay using strawberry; conditions: 0.125 mg, 3-day treatment at 21° C. plus 2 days at 21° C., vs acetone only control
Phytophthora capsici = assay: in vivo volatile assay on squash; conditions: 10 mg/L, 21° C. for 3 days
Experimental: To test the effect of Compound A (FIG. 1) on vegetables, potato, onion and squash were obtained from a local store, and the surface sterilized with 0.825% sodium hypochlorite (NaOCl). A slice of potato or two leaves of onion were placed in a sterile Petri plate, while whole squash were placed in a sterile 10.8-cup SnapWare airtight container (Model #109842). Each slice of potato was inoculated with 20 μL of a 1×10^5 spores/mL Fusarium sambucinum suspension, while onions were inoculated with 20 μL of a 1×10^6 spores/mL Botrytis cinerea suspension. For inoculation of squash, a small core was removed, and a mycelial plug of Phytophthora capsici was inserted and capped with the core. Compound A was diluted in acetone, and added to a 42.5 mm Whatman #1 filter disk (Cat. No. 1001-042) attached to the inner side of the lid at a rate to achieve a final headspace concentration of 10 mg/L. The acetone was permitted to evaporate for 5 minutes before parafilm sealing the plates or closing the airtight containers. The vegetables were incubated at 21° C. for 3 days, and evaluated for mycelial growth, dry rot, and water-soaked appearance (mm diameter) with results summarized in Table 13.

Botrytis cinerea [4] = assay: in vivo dose by time volatile bioassay using strawberry; conditions: for Incidence (%) / Severity (0 to 3): strawberries
Experimental: In order to assess the in vivo dose by time activity of volatile antimicrobial compounds, a volatile bioassay is developed using strawberry. Two fruit are placed inside a 240 mL jar, with the calyx facing downwards. […] Whatman filter paper (Cat. No. 1822-024) is placed inside duplicate jar lids. Compound A (benzoxaborole; FIG. 1) is diluted in acetone, and the appropriate amount of compound is added to the disks at two rates 0.008 or 0.125 mg. The acetone is permitted to evaporate for 5 minutes. The jars are capped with the lids containing the fungicide, and incubated with the volatile fungicide for 1, 3, 6, 24 or 72 hours. After incubation, lids containing the disk with Compound A are replaced with new lids without Compound A. All samples are maintained at 21° C. for 3 days, and then the lids are removed and maintained for an additional 48 hours, all at 90% relative humidity (R.H.). The fruit are evaluated for incidence and severity of disease and appearance of phytotoxicity.

Penicillium digitatum [5] = assay: in vivo volatile bioassay using orange fruit (Compound A); conditions: oranges
Experimental: In order to assess the in vivo activity of volatile antimicrobial Compound A in fruit, a volatile bioassay is developed using orange fruit. Two oranges are placed inside a PET clamshell. Three fresh wounds per orange are inoculated with 30 μL of 1×10^6 per mL Penicillium digitatum spore suspension. The clamshells are placed inside a 10.8-cup SnapWare airtight container (Model #109842). A 42.5 mm Whatman #1 filter disk (Cat. No. 1001-042) is placed on a watch glass. Compound A is dissolved in acetone and added to the disks in a dose dependent manner to produce a final headspace concentration of 2, 10, or 50 mg/L. The acetone is permitted to evaporate for five minutes. The containers are then closed with the lids and placed for three days at 21° C. After storage, fruits are evaluated for disease incidence (mm diameter of the rot) and pathogen sporulation (mm diameter) on the surface of the fruits for an additional two days at 21° C., with results summarized in Table 18.

Structure (SMILES): OB1OCc2cc(F)ccc21 [Compound A]
- Browning (mm) (Penicillium expansum; Apple): 5.4 mm
- Sporulation (mm) (Penicillium expansum; Apple): 0 mm
- Browning (mm) (Penicillium expansum; Pear): 2.7 mm
- Sporulation (mm) (Penicillium expansum; Pear): 0 mm
- Incidence (%) (Botrytis cinerea [1]; Blueberry): 5%
- Severity (0-4) (Botrytis cinerea [1]; Blueberry): 0.03
- Incidence (%) (Botrytis cinerea [1]; Grape): 26.7%
- Severity (0-4) (Botrytis cinerea [1]; Grape): 0.1
- Incidence (%) (Botrytis cinerea [1]; Strawberry): 18.8%
- Severity (0-4) (Botrytis cinerea [1]; Strawberry): 0.09
- Sporulation (mm) (Penicillium digitatum [2]): 8.55 mm
- Water soaked lesion (Penicillium digitatum [2]): 3.04 mm
- in vivo inhibition of Botrytis cinerea (Botrytis cinerea [3]): 100%
- Mycelial growth (Phytophthora capsici): 1.1 mm
- Water soaked (Phytophthora capsici): 5.3 mm
- Incidence (%) (Botrytis cinerea [4]; 0.008 mg/disk, Time 3 h): 0%
- Severity (0 to 3) (Botrytis cinerea [4]; 0.008 mg/disk, Time 3 h): 0.0
- Incidence (%) (Botrytis cinerea [4]; 0.008 mg/disk, Time 6 h): 33%
- Severity (0 to 3) (Botrytis cinerea [4]; 0.008 mg/disk, Time 6 h): 1.0
- Incidence (%) (Botrytis cinerea [4]; 0.008 mg/disk, Time 24 h): 67%
- Severity (0 to 3) (Botrytis cinerea [4]; 0.008 mg/disk, Time 24 h): 2.3
- Incidence (%) (Botrytis cinerea [4]; 0.008 mg/disk, Time 72 h): 33%
- Severity (0 to 3) (Botrytis cinerea [4]; 0.008 mg/disk, Time 72 h): 1.0
- Incidence (%) (Botrytis cinerea [4]; 0.125 mg/disk, Time 1 h): 67%
- Severity (0 to 3) (Botrytis cinerea [4]; 0.125 mg/disk, Time 1 h): 2.3
- Incidence (%) (Botrytis cinerea [4]; 0.125 mg/disk, Time 3 h): 33%
- Severity (0 to 3) (Botrytis cinerea [4]; 0.125 mg/disk, Time 3 h): 1.3
- Incidence (%) (Botrytis cinerea [4]; 0.125 mg/disk, Time 6 h): 0%
- Severity (0 to 3) (Botrytis cinerea [4]; 0.125 mg/disk, Time 6 h): 0.0
- Incidence (%) (Botrytis cinerea [4]; 0.125 mg/disk, Time 24 h): 0%
- Severity (0 to 3) (Botrytis cinerea [4]; 0.125 mg/disk, Time 24 h): 0.0
- Incidence (%) (Botrytis cinerea [4]; 0.125 mg/disk, Time 72 h): 0%
- Severity (0 to 3) (Botrytis cinerea [4]; 0.125 mg/disk, Time 72 h): 0.0
- control of Botrytis cinerea (Botrytis cinerea [4]; strawberry, 0.125 mg/disk, after 6 hour exposure): 100%
- appearance of phytotoxicity (Botrytis cinerea [4]; strawberry, 0.008 or 0.125 mg): no evidence of phytotoxicity
- Sporulation (mm) (Penicillium digitatum [5]; 2 mg/L, Day 0): 0 mm
- Water soaked lesions (mm) (Penicillium digitatum [5]; 2 mg/L, Day 0): 0 mm
- Sporulation (mm) (Penicillium digitatum [5]; 2 mg/L, Day 1): 0.4 mm
- Water soaked lesions (mm) (Penicillium digitatum [5]; 2 mg/L, Day 1): 0 mm
- Sporulation (mm) (Penicillium digitatum [5]; 2 mg/L, Day 2): 2.7 mm
- Water soaked lesions (mm) (Penicillium digitatum [5]; 2 mg/L, Day 2): 13.4 mm
- Sporulation (mm) (Penicillium digitatum [5]; 10 mg/L, Day 0): 0.5 mm
- Water soaked lesions (mm) (Penicillium digitatum [5]; 10 mg/L, Day 0): 0 mm
- Sporulation (mm) (Penicillium digitatum [5]; 10 mg/L, Day 1): 0.4 mm
- Water soaked lesions (mm) (Penicillium digitatum [5]; 10 mg/L, Day 1): 0 mm
- Sporulation (mm) (Penicillium digitatum [5]; 10 mg/L, Day 2): 2.5 mm
- Water soaked lesions (mm) (Penicillium digitatum [5]; 10 mg/L, Day 2): 9 mm
- Sporulation (mm) (Penicillium digitatum [5]; 50 mg/L, Day 0): 0 mm
- Water soaked lesions (mm) (Penicillium digitatum [5]; 50 mg/L, Day 0): 0 mm
- Sporulation (mm) (Penicillium digitatum [5]; 50 mg/L, Day 1): 0 mm
- Water soaked lesions (mm) (Penicillium digitatum [5]; 50 mg/L, Day 1): 0 mm
- Sporulation (mm) (Penicillium digitatum [5]; 50 mg/L, Day 2): 1.2 mm
- Water soaked lesions (mm) (Penicillium digitatum [5]; 50 mg/L, Day 2): 5 mm
